Data on two substances can be found in article PMC6278394, “Screening of Angiotensin-I Converting Enzyme Inhibitory Peptides Derived from Caulerpa lentillifera” (Molecules, 2018).

Ends that are not written are not given here.

As usually defined, the IC50 is the concentration that inhibits the measured activity by half.

In assay [1] the target is T1, ACE (EC 3.4.15.1) from rabbit lungs (Oryctolagus cuniculus, UniProt P12822).
T1 construct: ACE (EC 3.4.15.1) from rabbit lungs; purchased Sigma Chemical Co. (St. Louis, MO, USA); host or cells: rabbit lung tissue
T1 sequence (P12822 34-1310): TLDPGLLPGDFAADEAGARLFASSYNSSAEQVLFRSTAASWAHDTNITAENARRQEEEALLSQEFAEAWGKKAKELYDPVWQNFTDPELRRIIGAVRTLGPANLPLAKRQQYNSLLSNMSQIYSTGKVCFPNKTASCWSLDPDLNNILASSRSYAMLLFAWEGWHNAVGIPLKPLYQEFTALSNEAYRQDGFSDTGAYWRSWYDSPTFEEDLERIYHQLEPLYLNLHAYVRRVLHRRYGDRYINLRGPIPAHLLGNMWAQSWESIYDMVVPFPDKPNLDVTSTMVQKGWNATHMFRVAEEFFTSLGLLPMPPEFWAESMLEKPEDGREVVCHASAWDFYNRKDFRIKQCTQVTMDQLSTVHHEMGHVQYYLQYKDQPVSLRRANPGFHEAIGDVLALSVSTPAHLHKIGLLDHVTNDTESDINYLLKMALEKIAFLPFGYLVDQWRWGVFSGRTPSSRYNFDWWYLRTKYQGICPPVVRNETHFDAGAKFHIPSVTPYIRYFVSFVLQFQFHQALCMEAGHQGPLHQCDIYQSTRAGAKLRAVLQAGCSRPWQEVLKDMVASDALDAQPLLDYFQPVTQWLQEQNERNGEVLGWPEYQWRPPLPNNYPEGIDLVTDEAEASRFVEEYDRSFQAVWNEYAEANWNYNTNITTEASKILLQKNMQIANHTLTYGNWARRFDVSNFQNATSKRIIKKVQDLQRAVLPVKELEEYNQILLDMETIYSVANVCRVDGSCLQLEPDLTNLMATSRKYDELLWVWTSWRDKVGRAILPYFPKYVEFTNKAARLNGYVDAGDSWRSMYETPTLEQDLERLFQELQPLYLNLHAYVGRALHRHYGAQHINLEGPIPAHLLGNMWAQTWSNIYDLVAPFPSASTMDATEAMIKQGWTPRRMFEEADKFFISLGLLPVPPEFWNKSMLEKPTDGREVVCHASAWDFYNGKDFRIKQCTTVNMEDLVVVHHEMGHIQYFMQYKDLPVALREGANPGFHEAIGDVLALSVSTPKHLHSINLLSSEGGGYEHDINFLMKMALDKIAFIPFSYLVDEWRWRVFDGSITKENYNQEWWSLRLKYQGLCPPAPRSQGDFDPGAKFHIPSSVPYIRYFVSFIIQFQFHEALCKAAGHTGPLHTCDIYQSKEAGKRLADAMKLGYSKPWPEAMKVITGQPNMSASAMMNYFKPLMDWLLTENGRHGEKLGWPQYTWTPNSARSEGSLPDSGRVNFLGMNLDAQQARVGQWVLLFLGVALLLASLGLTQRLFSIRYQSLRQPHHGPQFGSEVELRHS
The assay is described as follows: in vitro ACE inhibitory assay (HHL substrate, hippuric acid by RP-HPLC). Type of assay: biochemical. Particulars: synthetic peptide; HHL 2.5 mM, borate buffer pH 8.3, 37 °C, HPLC read-out at 228 nm; triplicate, nonlinear regression (Graphpad Prism 6.0). The procedure:
The ACEI activity assay was performed according to a previous report with a slight modification. For each assay, 30 µL 2.5 mM Hippuryl-L-histidyl-L-leucine (HHL) was used as a substrate and added by 10 µL of testing sample (peptides) at a certain concentration in 200 mM borate buffer containing 300 mM NaCl (adjusted to pH 8.3). Blank sample using 10 µL of borate buffer and was added by the same substrate. The positive control was 10 µL of 10 µM captopril. All samples were pre-incubated at 37 °C for 5 min. Subsequently, 20 µL of ACE (0.05 mU/µL) in 200 mM borate buffer was added to the blank sample, positive control and testing sample. The reaction was incubated statically at 37 °C for 30 min and then incubated thermostatically using shaker incubation (200 rpm) at 37 °C for 30 min. […] The HHL and ACE’s hydrolyzed product, hippuric acid (HA), were quantitatively analyzed using HPLC equipped with a C18 column. […] The result of HA was detected by UV detector at 228 nm. The ACE inhibition (%) was determined according to the following equation:ACE Inhibition (%) = [1 − (ΔAInhibitor/ΔABlank)] × 100
Here, ΔAInhibitor and ΔABlank were the peak areas of HA in testing and blank samples, respectively. […] The IC50 was determined using Graphpad Prism 6.0 (GraphPad Software, Inc., La Jolla, CA, USA) by a nonlinear regression of ACE inhibition result (%) caused by different concentrations of inhibitor.

Assay [2] concerns the target T1, ACE (EC 3.4.15.1) from rabbit lungs. The assay is described as follows: pre-incubation experiment of ACEI peptide with ACE (stability towards ACE, inhibitor type). The assay is classed as biochemical. Particulars: peptide 100 µM; for ACE inhibition activity without pre-incubation: before pre-incubation with ACE; for ACE inhibition activity after pre-incubation: pre-incubated with ACE (0.05 mU/µL) 3 h at 37 °C, then HHL 2.5 mM 1 h at 37 °C. As to the method:
Since ACE is a dipeptidyl-carboxypeptidase, whether the ACEI peptides will be cleaved by ACE is a critical issue for an in vivo application. Pre-incubation of ACEI peptides with ACE before adding substrate is often used to monitor the reactivity between ACE and the ACEI peptide.
The stability of ACEI peptides towards peptidase ACE was determined according to the method described by Ruiz et al.. Briefly, ACEI peptide (at 100 µM) in 10 µL of deionized water was incubated with 20 µL of ACE (0.05 mU/µL) for 3 h at 37 °C. After that, 30 µL of 2.5 mM HHL was added and the reaction mixture was incubated at 37 °C for 1 h. The reaction was stopped by adding 60 µL 1 N HCl, and the inhibition degree of the peptide was calculated as in Section 3.5.

Regarding AIDPVRA [AA-7], in assay [1], the IC50 stood at 65.8 ± 0.92 µM. Moreover, in assay [2] (3 h pre-incubation with ACE at 37 °C), the “decrease of inhibition activity after pre-incubation” value is “about 10%”. For the same substance, in assay [2], the “ACE inhibition activity without pre-incubation” value is listed as 68.07% and the “ACE inhibition activity after pre-incubation” value is 57.89%.
For FDGIP [FP-5], the half-maximal inhibitory concentration (IC50) in assay [1] is 58.9 ± 0.68 µM. In assay [2], the “ACE inhibition activity without pre-incubation” value is 78.89% and the “ACE inhibition activity after pre-incubation” value was found to be 76.47%.
